Assay results: PMC12211128, “Safety, tolerability, pharmacokinetic and pharmacodynamic effects of the muscarinic M1 positive allosteric modulator VU0467319 for Alzheimer’s disease: a single ascending-dose study in healthy participants” (Alzheimer's Research & Therapy, 2025)
Entries after “also recorded” stand apart in the source; their conditions may differ.

Assays:
healthy participants [1] = assay: N-back sequential letter task; format: in vivo, human; settings: for N-Back 0-back Sensitivity (d’) / N-Back 1-back Sensitivity / N-Back 2-back Sensitivity / N-Back 3-back Sensitivity: mean (SD)
Source text: A visually presented N-back sequential letter task was used to assess working memory performance, wherein participants saw a string of consonants (except L, W, and Y), presented in upper case letters, one every 3 s. Four conditions were presented: 0-back, 1-back, 2-back, and 3-back. The main outcome variable of the n-back task was sensitivity (d’) for each of the four conditions, calculated as: d’ = Z (Hit)– Z (False alarms).
Cognitive data: In this exploratory analysis, each outcome variable of the cognitive data was examined in a mixed model analysis of variance with one between-subjects factor of VU319 dose (0, 60, 120, 240, 400, 600 mg) and a within-subjects factor of testing session (pre-dose vs. post-dost administration). Post-hoc analysis compared each of the VU319 dose cohorts against the placebo group. Because the participants were healthy adults with normal cognitive function, we considered effects between no reductions in function to small improvement (d = 0.0–0.20) to be a positive result. For the food effect study, only the participants who received VU319 were examined due to the disproportionately small placebo group (n = 2). A within-subjects ANOVA including food condition (fasted/fed) and testing session (pre-dose vs. post-dose administration) was performed on each outcome variable.
A visually presented N-back sequential letter task (Jonides et al., 1997; Saykin et al., 2004) was used to assess working memory performance, wherein participants saw a string of consonants (except L, W, and Y), presented in upper case letters, one every 3 s. Four conditions were presented: 0-back, 1-back, 2-back, and 3-back. The 0-back control condition required participants to decide if the current letter matched a single target letter that was specified before the epoch began. In each of the 1-back, 2-back, and 3-back conditions, the task is to decide whether the letter currently presented matches the letter that has been presented 1, 2, or 3 back in the sequence. The 0-, 1-, 2-, and 3-back conditions were performed in two blocks of 27 trials each for a total of 216 trials. The blocks were presented in a counterbalanced order such that the same condition was not repeated two times in a row. The main outcome variable of the n-back task was sensitivity (d’) for each of the four conditions, calculated as: d’ = Z (Hit) – Z (False alarms).

healthy participants [2] = assay: Treatment emergent adverse event (TEAE) monitoring; format: in vivo, human
Method: Safety and tolerability were assessed throughout the study via treatment emergent adverse event (TEAE) monitoring, vital signs (blood pressure, pulse rate, respiration rate, oral temperature), physical examinations, 12-lead ECGs, and clinical laboratory parameters including complete blood count (CBC), coagulation, hematology, clinical chemistry assessments, and urinalysis. Safety laboratory tests were drawn at pre-dose and at 5, 24, 36 and 144-hours post-dose for 60–400 mg Cohorts; and at 24, 48, 72 and 144-hours post-dose for the 600 mg and Food Effect Cohort. ECG assessments were conducted at pre-dose and at 1, 2, 3, 5, 9, 24, 36 and 144-hours post-dose for 60–400 mg Cohorts; and at 2, 3, 5, 9, 24, 36, 72 and 144-hours post-dose for the 600 mg and Food Effect Cohort. All adverse events (AEs) were assessed by the investigator for severity and relationship to study medication or study procedures.
All AEs were coded using the Medical Dictionary for Regulatory Activities (MedDRA) version 22.0. All AEs were listed, and the emergence of TEAEs were categorized by body system affected and analyzed to determine whether they were related to treatment. Analysis of TEAEs for VU319 vs. Placebo were completed using Fisher’s Exact Test. Assessment of the grade of toxicity or relation to the study drug for each adverse event was determined by the Investigator. Changes in vital signs, physical examination, and laboratory tests were collected. Changes in vital signs from pre-dose to 48 h post-dose were placed into 10-time bins and assessed using mixed-measures ANOVA with the time bins as the within-subjects factor and dose as the between-subjects factor. To assess changes is QT analyses with respect to VU319 concentration, we calculated the maximal change in QTcF from baseline for each participant. We assessed the relationship between these maximal changes from baseline with the participant’s Cmax using Pearson correlations. Outlier QTcF values (> 450 ms) were also assessed against PK concentrations to examine it there was any relationship using Pearson correlations. Analyses of safety data was completed by SAS version 9.4.

[3] = Food effect study 120 mg, Fasting, Post-Drug
[4] = Food effect study 120 mg, Fasting, Pre-Drug
[5] = Food effect study 120 mg, Fed, Post-Drug
[6] = Food effect study 120 mg, Fed, Pre-Drug

SMILES: Cn1cc2c(-c3cc(F)c(CN4Cc5ncccc5C4=O)c(F)c3)cccc2n1 [VU319]
- N-back 2-back d', vs placebo, effect size d (healthy participants [1]; 400 mg, p = 0.12): 0.87
- N-back 1-back d', vs placebo, effect size d (healthy participants [1]; 600 mg, p = 0.12): 0.86
- N-Back 0-back Sensitivity (d’) (healthy participants [1]; [3]): 5.15 (1.1)
- N-Back 1-back Sensitivity (healthy participants [1]; [3]): 3.38 (2.09)
- N-Back 2-back Sensitivity (healthy participants [1]; [3]): 2.3 (1.64)
- N-Back 3-back Sensitivity (healthy participants [1]; [3]): 1.96 (1.4)
- N-Back 0-back Sensitivity (d’) (healthy participants [1]; [4]): 4.64 (1.22)
- N-Back 1-back Sensitivity (healthy participants [1]; [4]): 5.01 (0.93)
- N-Back 2-back Sensitivity (healthy participants [1]; [4]): 3.79 (1.18)
- N-Back 3-back Sensitivity (healthy participants [1]; [4]): 2.55 (1.42)
- N-Back 0-back Sensitivity (d’) (healthy participants [1]; [5]): 4.62 (1.32)
- N-Back 1-back Sensitivity (healthy participants [1]; [5]): 4.13 (1.6)
- N-Back 2-back Sensitivity (healthy participants [1]; [5]): 2.89 (1.42)
- N-Back 3-back Sensitivity (healthy participants [1]; [5]): 2.53 (0.97)
- N-Back 0-back Sensitivity (d’) (healthy participants [1]; [6]): 4.67 (1.4)
- N-Back 1-back Sensitivity (healthy participants [1]; [6]): 5.42 (0.99)
- N-Back 2-back Sensitivity (healthy participants [1]; [6]): 3.75 (1.21)
- N-Back 3-back Sensitivity (healthy participants [1]; [6]): 2.29 (0.65)
- N-Back 0-back Sensitivity (d’) (healthy participants [1]; SAD study, 60 mg, Post-Drug): 5.37 (1.26)
- N-Back 1-back Sensitivity (healthy participants [1]; SAD study, 60 mg, Post-Drug): 4.99 (1.48)
- N-Back 2-back Sensitivity (healthy participants [1]; SAD study, 60 mg, Post-Drug): 3.12 (1.22)
- N-Back 3-back Sensitivity (healthy participants [1]; SAD study, 60 mg, Post-Drug): 2.11 (0.36)
- N-Back 0-back Sensitivity (d’) (healthy participants [1]; SAD study, 60 mg, Pre-Drug): 5.64 (0.84)
- N-Back 1-back Sensitivity (healthy participants [1]; SAD study, 60 mg, Pre-Drug): 5.01 (1.17)
- N-Back 2-back Sensitivity (healthy participants [1]; SAD study, 60 mg, Pre-Drug): 3.35 (0.91)
- N-Back 3-back Sensitivity (healthy participants [1]; SAD study, 60 mg, Pre-Drug): 2.65 (0.49)
- N-Back 0-back Sensitivity (d’) (healthy participants [1]; SAD study, 120 mg, Post-Drug): 5.37 (1.26)
- N-Back 1-back Sensitivity (healthy participants [1]; SAD study, 120 mg, Post-Drug): 4.46 (1.35)
- N-Back 2-back Sensitivity (healthy participants [1]; SAD study, 120 mg, Post-Drug): 3.25 (2.19)
- N-Back 3-back Sensitivity (healthy participants [1]; SAD study, 120 mg, Post-Drug): 1.75 (1.14)
- N-Back 0-back Sensitivity (d’) (healthy participants [1]; SAD study, 120 mg, Pre-Drug): 5.64 (0.84)
- N-Back 1-back Sensitivity (healthy participants [1]; SAD study, 120 mg, Pre-Drug): 4.91 (1.08)
- N-Back 2-back Sensitivity (healthy participants [1]; SAD study, 120 mg, Pre-Drug): 3.28 (1.98)
- N-Back 3-back Sensitivity (healthy participants [1]; SAD study, 120 mg, Pre-Drug): 2.34 (1.12)
- N-Back 0-back Sensitivity (d’) (healthy participants [1]; SAD study, 240 mg, Post-Drug): 6.18 (0)
- N-Back 1-back Sensitivity (healthy participants [1]; SAD study, 240 mg, Post-Drug): 4.32 (2.3)
- N-Back 2-back Sensitivity (healthy participants [1]; SAD study, 240 mg, Post-Drug): 3.42 (2.29)
- N-Back 3-back Sensitivity (healthy participants [1]; SAD study, 240 mg, Post-Drug): 1.66 (0.83)
- N-Back 0-back Sensitivity (d’) (healthy participants [1]; SAD study, 240 mg, Pre-Drug): 6.18 (0)
- N-Back 1-back Sensitivity (healthy participants [1]; SAD study, 240 mg, Pre-Drug): 4.72 (2.02)
- N-Back 2-back Sensitivity (healthy participants [1]; SAD study, 240 mg, Pre-Drug): 3.77 (1.84)
- N-Back 3-back Sensitivity (healthy participants [1]; SAD study, 240 mg, Pre-Drug): 2.37 (0.81)
- N-Back 0-back Sensitivity (d’) (healthy participants [1]; SAD study, 400 mg, Post-Drug): 6.18 (0)
- N-Back 1-back Sensitivity (healthy participants [1]; SAD study, 400 mg, Post-Drug): 5.37 (1.26)
- N-Back 2-back Sensitivity (healthy participants [1]; SAD study, 400 mg, Post-Drug): 3.6 (1.84)
- N-Back 3-back Sensitivity (healthy participants [1]; SAD study, 400 mg, Post-Drug): 2.01 (0.74)
- N-Back 0-back Sensitivity (d’) (healthy participants [1]; SAD study, 400 mg, Pre-Drug): 6.18 (0)
- N-Back 1-back Sensitivity (healthy participants [1]; SAD study, 400 mg, Pre-Drug): 5.64 (0.84)
- N-Back 2-back Sensitivity (healthy participants [1]; SAD study, 400 mg, Pre-Drug): 3.54 (1.69)
- N-Back 3-back Sensitivity (healthy participants [1]; SAD study, 400 mg, Pre-Drug): 2.34 (0.74)
- N-Back 0-back Sensitivity (d’) (healthy participants [1]; SAD study, 600 mg, Post-Drug): 5.27 (1.43)
- N-Back 1-back Sensitivity (healthy participants [1]; SAD study, 600 mg, Post-Drug): 5.09 (1.06)
- N-Back 2-back Sensitivity (healthy participants [1]; SAD study, 600 mg, Post-Drug): 4.43 (1.72)
- N-Back 3-back Sensitivity (healthy participants [1]; SAD study, 600 mg, Post-Drug): 2.94 (1.3)
- N-Back 0-back Sensitivity (d’) (healthy participants [1]; SAD study, 600 mg, Pre-Drug): 5.57 (0.95)
- N-Back 1-back Sensitivity (healthy participants [1]; SAD study, 600 mg, Pre-Drug): 5.07 (0.59)
- N-Back 2-back Sensitivity (healthy participants [1]; SAD study, 600 mg, Pre-Drug): 4.31 (1.69)
- N-Back 3-back Sensitivity (healthy participants [1]; SAD study, 600 mg, Pre-Drug): 3.3 (1.02)
- N-back d' score, effect of dose (healthy participants [1]; SAD study, four conditions, all p > 0.2): did not show a significant effect of dose, nor dose by time
- N-back 2-back sensitivity, effect of time of testing, effect size d (healthy participants [1]; food effect study, 120 mg, p = 0.004, not related to food condition): 2.55
- N-back 1-back sensitivity, effect of time of testing, effect size d (healthy participants [1]; food effect study, 120 mg, p = 0.015, not related to food condition): 2.0
- TEAEs, VU319 vs placebo (Fisher's Exact Tests) (healthy participants [2]; in vivo): did not show a significant difference
- number of TEAEs across the 5 active dose cohorts (healthy participants [2]; in vivo): 33
- serious TEAEs, deaths, discontinuations (healthy participants [2]; single oral doses 60-600 mg): No TEAE was rated as serious; also recorded: no serious TEAEs or discontinuations occurred; also recorded: no deaths, serious TEAEs, or TEAEs leading to discontinuation
- tolerability (healthy participants [2]; single oral doses 60 to 600 mg, healthy volunteers aged 18-55): Tolerability was good; also recorded: generally well tolerated
- maximum tolerated dose (MTD) (healthy participants [2]; single oral doses up to 600 mg): not achieved
